The supplement of paper PMC10307832

Columns and labels:
Assay in all cases: relative viability (nuclei count vs DMSO), 5 days (fraction); higher = more cells survive
IMD-0354 + AZD7762 = compound: O=C(Nc1cc(C(F)(F)F)cc(C(F)(F)F)c1)c1cc(Cl)ccc1O [IMD-0354] + NC(=O)Nc1cc(-c2cccc(F)c2)sc1C(=O)N[C@H]1CCCNC1 [AZD7762] (partner 0.2 µM)
Procedure, shortened: (§1)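 For relative viability, nuclei counts in treated wells were divided by those in vehicle wells. Lung cancer cell lines had been pin-tool dosed in 1536-well plates the day after seeding and cultured for 5 days, then fixed and stained in one step (final 0.05% Triton X-100, 1% formaldehyde, 1 ug/ml Hoechst) and imaged at 4×. Doses were one drug alone or a fixed anchor-drug dose plus five library-drug doses (not always all listed) in √10 steps, and values are duplicate-plate medians.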

CX-5461 + Bortezomib = compound: Cc1cnc(CNC(=O)c2c(=O)c3ccc(N4CCCN(C)CC4)nc3n3c2sc2ccccc23)cn1 [CX-5461] + CC(C)C[C@H](NC(=O)[C@H](Cc1ccccc1)NC(=O)c1cnccn1)B(O)O [Bortezomib] (partner 0.002 µM)
Procedure, shortened: as §1

CX-5461 + Crizotinib = compound: Cc1cnc(CNC(=O)c2c(=O)c3ccc(N4CCCN(C)CC4)nc3n3c2sc2ccccc23)cn1 [CX-5461] + C[C@@H](Oc1cc(-c2cnn(C3CCNCC3)c2)cnc1N)c1c(Cl)ccc(F)c1Cl [Crizotinib] (partner 1 µM)
Procedure, shortened: as §1

IMD-0354 + Bortezomib = compound: O=C(Nc1cc(C(F)(F)F)cc(C(F)(F)F)c1)c1cc(Cl)ccc1O [IMD-0354] + CC(C)C[C@H](NC(=O)[C@H](Cc1ccccc1)NC(=O)c1cnccn1)B(O)O [Bortezomib] (partner 0.002 µM)
Procedure, shortened: as §1

Cell Line	relative viability (IMD-0354 + AZD7762; first compound 0.04 µM)	relative viability (IMD-0354 + AZD7762; first compound 0.1265 µM)	relative viability (IMD-0354 + AZD7762; first compound 0.4 µM)	relative viability (IMD-0354 + AZD7762; first compound 1.265 µM)	relative viability (IMD-0354 + AZD7762; first compound 4 µM)	relative viability (CX-5461 + Bortezomib; first compound 0.01 µM)	relative viability (CX-5461 + Bortezomib; first compound 0.03162 µM)	relative viability (CX-5461 + Bortezomib; first compound 0.1 µM)	relative viability (CX-5461 + Bortezomib; first compound 0.3162 µM)	relative viability (CX-5461 + Bortezomib; first compound 1 µM)	relative viability (CX-5461 + Crizotinib; first compound 0.01 µM)	relative viability (CX-5461 + Crizotinib; first compound 0.03162 µM)	relative viability (CX-5461 + Crizotinib; first compound 0.1 µM)	relative viability (CX-5461 + Crizotinib; first compound 0.3162 µM)	relative viability (CX-5461 + Crizotinib; first compound 1 µM)	relative viability (IMD-0354 + Bortezomib; first compound 0.04 µM)	relative viability (IMD-0354 + Bortezomib; first compound 0.1265 µM)	relative viability (IMD-0354 + Bortezomib; first compound 0.4 µM)	relative viability (IMD-0354 + Bortezomib; first compound 1.265 µM)	relative viability (IMD-0354 + Bortezomib; first compound 4 µM)
NCI-H3122	1.05	1.05	0.623	0.271	0.133	0.95	1.06	1.07	1.02	0.914	0.299	0.267	0.284	0.255	0.282	0.975	1.06	0.927	0.231	0.172
NCI-H1975	0.781	0.771	0.655	0.724	0.266	0.361	0.357	0.357	0.358	0.154	1.13	0.986	0.821	1.08	0.462	0.371	0.442	0.345	0.201	0.213
NCI-H2170	0.946	0.978	0.818	0.767	0.151	–	–	–	–	–	1.17	1.29	1.28	1.18	1.09	–	–	–	–	–
LU99A	0.246	0.393	0.332	0.185	0.151	1.1	1.02	0.977	0.868	0.417	0.571	0.552	0.495	0.344	0.453	0.878	1.19	0.625	0.281	0.186
NCI-H2347	0.829	0.838	0.617	0.281	0.345	1.06	1.21	0.836	0.854	0.941	0.446	0.696	0.674	0.687	0.523	0.741	1.02	0.748	0.606	0.533
NCI-H2009	–	–	–	–	–	1.05	1.08	0.644	0.867	0.492	1.07	1.02	1.09	1.02	0.697	0.973	0.878	0.771	0.105	0.0845
HCC-15	1.07	1.13	0.923	0.648	0.157	1.04	1.16	1.02	1.03	0.731	0.884	0.888	0.765	0.766	0.691	1	0.962	0.549	0.346	0.119
COR-L23	–	–	–	–	–	0.831	1.05	0.813	1.04	0.474	0.63	0.797	0.482	0.602	0.256	0.932	0.823	0.372	0.114	0.249
NCI-H1299	–	–	–	–	–	1	0.981	1.05	1.04	0.979	0.961	0.99	0.991	0.959	0.863	0.938	0.965	0.841	0.438	0.193
NCI-H1650	–	–	–	–	–	0.202	0.191	–	0.19	0.175	1.08	0.996	–	0.948	0.149	0.205	0.196	0.189	0.166	0.197
NCI-H1944	0.433	0.541	0.488	0.321	0.156	–	–	–	–	–	1.16	1.38	1.18	–	1.05	–	–	–	–	–
COR-L 105	–	–	–	–	–	0.841	0.701	0.492	0.385	0.416	1.12	0.992	0.861	0.745	0.325	0.757	0.663	0.76	0.239	0.274
NCI-H2228	–	–	–	–	–	0.934	0.797	0.455	0.819	0.126	0.445	0.602	0.511	0.482	0.204	0.946	0.848	0.653	0.362	0.258
NCI-H1648	0.616	0.715	0.526	0.705	0.297	–	–	–	–	–	–	–	–	–	–	–	–	–	–	–
NCI-H661	–	–	–	–	–	0.885	0.877	0.61	–	0.639	1.01	1.08	1.02	0.615	0.944	0.968	0.718	0.719	0.925	0.276
NCI-H1563	–	–	–	–	–	0.894	0.788	0.632	0.742	0.499	0.865	0.725	0.774	0.675	0.464	1.01	0.927	0.768	0.403	0.38
A549	–	–	–	–	–	–	–	–	–	–	0.824	0.804	0.357	0.655	0.0561	–	–	–	–	–
NCI-H522	1.05	0.815	0.702	0.766	0.461	–	–	–	–	–	–	–	–	–	–	–	–	–	–	–
NCI-H358	0.591	0.433	0.384	0.245	0.255	–	–	–	–	–	0.524	0.57	0.365	0.26	0.174	–	–	–	–	–
SW 900	0.649	0.693	0.441	0.24	0.254	–	–	–	–	–	–	–	–	–	–	–	–	–	–	–
NCI-H1793	0.592	0.542	0.337	0.181	0.205	–	–	–	–	–	–	–	–	–	–	–	–	–	–	–
IA-LM	–	–	–	–	–	0.785	0.795	0.734	0.877	0.355	0.968	0.813	0.821	0.836	0.33	0.866	0.977	0.76	0.102	0.121
SK-MES-1	–	–	–	–	–	–	–	–	–	–	0.969	1.14	1.01	0.958	0.948	–	–	–	–	–
EBC-1	–	–	–	–	–	0.591	0.619	0.466	0.49	0.423	0.174	0.207	0.19	0.215	0.156	0.54	0.59	0.471	0.184	0.195
